From paper PMC11915372, “Identification of a Series Containing a Pentafluorophenyl Moiety That Targets Pks13 to Inhibit Growth of Mycobacterium tuberculosis” (ACS Infectious Diseases, 2025)
In brackets after ≈: the same amount, converted by molar mass. Like-named read-outs stand apart in the source and are kept apart here.

Assays:
[1] = system: M. tuberculosis (H37Rv); experiment: microbe, parasite or virus in culture; assay type: cell-based, Mycobacterium tuberculosis
[2] = physchem; assay type: physicochemical
[3] = assay type: in vitro ADME, mouse
[4] = assay type: in vitro ADME, mouse; remark: listed apart in the source
[5] = physchem; conditions: pH 7.4
[6] = system: HepG2 cells; experiment: HepG2 cytotoxicity; conditions: Homo sapiens
Excerpt: Assays to establish HepG2 cytotoxicity, in vitro microsomal/hepatocyte metabolic stability, aqueous kinetic solubility, and in vivo pharmacokinetic profiles were all performed as previously described.[15],[35]−[37]

[7] = Mycobacterium tuberculosis, H37RV, read-out: H37Rv MIC A
[8] = Mycobacterium tuberculosis, H37RV, read-out: H37Rv MIC B
[9] = Mycobacterium tuberculosis, H37RV, read-out: Wk2_7H9/DPPC/ casitone/ Tyloxapol MIC
[10] = Mycobacterium tuberculosis, H37RV, read-out: Wk2_ 7H9/DPPC/ cholesterol/BSA/ Tyloxapol MIC
[11] = Mycobacterium tuberculosis, H37RV, read-out: Wk2_7H9/glucose/ BSA/Tyloxapol MIC
[12] = Mycobacterium tuberculosis, H37RV, read-out: Wk2_7H9/glucose/ casitone/ Tyloxapol MIC
[13] = pH 7.4, aqueous buffer, kinetic from dmso stock
[14] = HepG2, read-out: HepG2 inhibitory concentration (IC50)

| SMILES | MIC [1, 7] | MIC [1, 8] | MIC [1, 9] | MIC [1, 10] | MIC [1, 11] | MIC [1, 12] | solubility kinetic [2, 13] | solubility kinetic ([2]; read-out: Kin. Sol) | Microsomal Cli ([3]; CD1, mouse) | Hepatocyte Cli ([4]; mouse) | chromatographic logD [5] | IC50 [6, 14] | Mouse micro Cl ([3]; mouse, microsomes) | Mouse Heps Cl ([4]; mouse, hepatocytes) | other results |
| --- | --- | --- | --- | --- | --- | --- | --- | --- | --- | --- | --- | --- | --- | --- | --- |
| CCOC(=O)c1nc(C)oc1NC(=O)c1c(F)c(F)c(F)c(F)c1F [Compound 24, CCOC(=O)c1nc(oc1NC(=O)c1c(c(c(c(c1F)F)F)F)F)C] | 0.27 µM (≈ 0.0983 µg/mL) | 0.6 µM (≈ 0.219 µg/mL) | 0.271 µM (≈ 0.0987 µg/mL) | 0.6 µM (≈ 0.219 µg/mL) | 0.434 µM (≈ 0.158 µg/mL) | 0.168 µM (≈ 0.0612 µg/mL) | 204 µM (≈ 74.3 µg/mL) | 204 µM (≈ 74.3 µg/mL) | <0.5 mL/min/g | 12 mL/min/g | 1.8 | > 100 µM |  |  | MIC ([1]; read-out: H37Rv MIC A): 0.3 µM (≈ 0.109 µg/mL) |
| Cc1nc(C(=O)OC(C)(C)C)c(NC(=O)c2c(F)c(F)c(F)c(F)c2F)o1 [Compound 36, Cc1nc(c(o1)NC(=O)c1c(c(c(c(c1F)F)F)F)F)C(=O)OC(C)(C)C] | 0.1 µM (≈ 0.0392 µg/mL) | 0.4 µM (≈ 0.157 µg/mL) | 0.1 µM (≈ 0.0392 µg/mL) | 0.4 µM (≈ 0.157 µg/mL) | 0.3 µM (≈ 0.118 µg/mL) | 0.1 µM (≈ 0.0392 µg/mL) | 127 µM (≈ 49.8 µg/mL) | 127 µM (≈ 49.8 µg/mL) | 1.1 mL/min/g | 26 mL/min/g | 2.8 | > 100 µM | 1.1 mL/min/g | 26 mL/min/g |  |
| CCOC(=O)c1nc(C(C)C)oc1NC(=O)c1c(F)c(F)c(F)c(F)c1F [Compound 31, CCOC(=O)c1nc(oc1NC(=O)c1c(c(c(c(c1F)F)F)F)F)C(C)C] | 0.1 µM (≈ 0.0392 µg/mL) | 0.6 µM (≈ 0.235 µg/mL) | 0.1 µM (≈ 0.0392 µg/mL) | 0.6 µM (≈ 0.235 µg/mL) | 0.6 µM (≈ 0.235 µg/mL) | 0.15 µM (≈ 0.0588 µg/mL) | 195 µM (≈ 76.5 µg/mL) | 195 µM (≈ 76.5 µg/mL) | 3.3 mL/min/g | 13 mL/min/g | 2.8 | > 100 µM | 3.3 mL/min/g | 13 mL/min/g |  |
| CCOC(=O)c1nc(C)oc1NC(=O)c1c(F)c(F)cc(F)c1F [Compound 28, CCOC(=O)c1nc(oc1NC(=O)c1c(c(cc(c1F)F)F)F)C] | > 50 µM | > 50 µM | > 50 µM | > 50 µM | > 50 µM | > 50 µM |  |  |  |  | 1.7 |  |  |  | solubility kinetic ([2]; kinetic solubility in water, read-out: Kin. Sol): 163 µM (≈ 56.4 µg/mL); solubility kinetic ([2]; pH 7.4, aqueous buffer, kinetic from dmso stock, pH7.4, read-out: Kinetic Solubility pH7.4): 163 µM (≈ 56.4 µg/mL); Mouse micro Cl ([3]; intrinsic clearance (Cli), CD1 mouse liver microsomes, Tables 1-4): <0.5 mLmin/g; Microsomal Cli ([3]; supplement data table): <0.5 mL/min/g; Mouse Heps Cl ([4]; intrinsic clearance (Cli), mouse hepatocytes, Tables 1-4): 0.88 mLmin/g; Hepatocyte Cli ([4]; supplement data table): 0.9 mL/min/g; IC50 ([6]; HepG2, read-out: Hs-HEPG IC50): > 100 µM |
| COC(=O)c1c(C)noc1NC(=O)c1c(F)c(F)c(F)c(F)c1F [Compound 22, COC(=O)c1c(noc1NC(=O)c1c(c(c(c(c1F)F)F)F)F)C] | 0.97 µM (≈ 0.34 µg/mL) | 3.1 µM (≈ 1.09 µg/mL) | 1 µM (≈ 0.35 µg/mL) | 3.1 µM (≈ 1.09 µg/mL) | 2.3 µM (≈ 0.805 µg/mL) | 0.8 µM (≈ 0.28 µg/mL) | 242 µM (≈ 84.7 µg/mL) | 242 µM (≈ 84.7 µg/mL) | 3.8 mL/min/g | 46 mL/min/g | 1.5 | > 100 µM | 3.8 mLmin/g | 45.6 mLmin/g |  |
| CCOC(=O)c1nc(-c2ccccc2)oc1NC(=O)c1c(F)c(F)c(F)c(F)c1F [Compound 34, CCOC(=O)c1nc(oc1NC(=O)c1c(c(c(c(c1F)F)F)F)F)-c1ccccc1] | 0.8 µM (≈ 0.341 µg/mL) | 4.7 µM (≈ 2 µg/mL) | 0.8 µM (≈ 0.341 µg/mL) | 4.7 µM (≈ 2 µg/mL) | 4.7 µM (≈ 2 µg/mL) | 0.3 µM (≈ 0.128 µg/mL) | 21 µM (≈ 8.95 µg/mL) | 21 µM (≈ 8.95 µg/mL) | 6.9 mL/min/g | 10 mL/min/g | 3 | 93 µM | 6.9 mL/min/g | 10 mL/min/g |  |
| CCOC(=O)c1nc(C)oc1NC(=O)c1cc(F)c(F)c(F)c1F [Compound 25, CCOC(=O)c1nc(oc1NC(=O)c1cc(c(c(c1F)F)F)F)C] | 0.3 µM (≈ 0.104 µg/mL) | 0.6 µM (≈ 0.208 µg/mL) | 0.3 µM (≈ 0.104 µg/mL) | 0.6 µM (≈ 0.208 µg/mL) | 0.6 µM (≈ 0.208 µg/mL) | 0.3 µM (≈ 0.104 µg/mL) | 136 µM (≈ 47.1 µg/mL) | 136 µM (≈ 47.1 µg/mL) | 5.1 mL/min/g | 17 mL/min/g | 2.5 | > 100 µM | 5.1 mLmin/g | 17 mLmin/g |  |
